Experimental data as given in publication PMC8347595, “N-Skatyltryptamines—Dual 5-HT6R/D2R Ligands with Antipsychotic and Procognitive Potential” (Molecules, 2021).
Where two headings read alike, the source gives them in different places.

Key:
[1] = tested on: 5-HT6; design: method as in Dupuis et al. (2008) [31]; settings: Figure 8; ref Dupuis et al. (2008) [31]; cited from earlier work
[2] = target: 5-HT2AR (Homo sapiens, UniProt P28223); assay: Radioligand binding assay, [3H]-ketanserin displacement; design: host or cells: CHO-K1; membrane preparation; settings: Table 1
5-HT2AR, sequence (P28223 whole entry): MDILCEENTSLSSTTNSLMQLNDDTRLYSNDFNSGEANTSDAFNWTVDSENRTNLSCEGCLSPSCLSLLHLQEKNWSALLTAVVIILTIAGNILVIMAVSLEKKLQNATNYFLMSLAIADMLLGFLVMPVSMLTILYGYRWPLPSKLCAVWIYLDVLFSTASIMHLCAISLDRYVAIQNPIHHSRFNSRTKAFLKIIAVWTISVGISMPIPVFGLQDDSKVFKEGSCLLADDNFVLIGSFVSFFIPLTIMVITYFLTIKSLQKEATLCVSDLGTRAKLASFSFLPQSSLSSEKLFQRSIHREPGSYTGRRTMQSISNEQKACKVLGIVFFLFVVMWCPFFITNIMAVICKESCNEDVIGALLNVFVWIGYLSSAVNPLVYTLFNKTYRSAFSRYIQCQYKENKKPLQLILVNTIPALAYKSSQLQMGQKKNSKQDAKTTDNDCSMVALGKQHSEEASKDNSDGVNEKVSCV

[3] = target: 5-HT6R (Homo sapiens, UniProt P50406); assay: Radioligand binding assay, [3H]-LSD displacement
5-HT6R, sequence (P50406 whole entry): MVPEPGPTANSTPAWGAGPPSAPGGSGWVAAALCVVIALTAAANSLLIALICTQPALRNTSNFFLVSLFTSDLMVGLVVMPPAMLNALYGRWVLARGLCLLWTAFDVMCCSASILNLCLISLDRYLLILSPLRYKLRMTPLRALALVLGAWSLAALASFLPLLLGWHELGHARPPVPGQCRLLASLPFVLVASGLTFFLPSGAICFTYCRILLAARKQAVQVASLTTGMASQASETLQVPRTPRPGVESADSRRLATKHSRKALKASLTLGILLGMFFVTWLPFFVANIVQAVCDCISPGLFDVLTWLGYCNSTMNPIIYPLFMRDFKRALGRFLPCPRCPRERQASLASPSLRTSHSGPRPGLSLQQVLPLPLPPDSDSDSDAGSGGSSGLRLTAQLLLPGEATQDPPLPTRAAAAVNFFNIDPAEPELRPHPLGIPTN

[4] = target: 5-HT7R (Homo sapiens, UniProt P34969); assay: Radioligand binding assay, [3H]-5-CT displacement
5-HT7R, sequence (P34969 1-432): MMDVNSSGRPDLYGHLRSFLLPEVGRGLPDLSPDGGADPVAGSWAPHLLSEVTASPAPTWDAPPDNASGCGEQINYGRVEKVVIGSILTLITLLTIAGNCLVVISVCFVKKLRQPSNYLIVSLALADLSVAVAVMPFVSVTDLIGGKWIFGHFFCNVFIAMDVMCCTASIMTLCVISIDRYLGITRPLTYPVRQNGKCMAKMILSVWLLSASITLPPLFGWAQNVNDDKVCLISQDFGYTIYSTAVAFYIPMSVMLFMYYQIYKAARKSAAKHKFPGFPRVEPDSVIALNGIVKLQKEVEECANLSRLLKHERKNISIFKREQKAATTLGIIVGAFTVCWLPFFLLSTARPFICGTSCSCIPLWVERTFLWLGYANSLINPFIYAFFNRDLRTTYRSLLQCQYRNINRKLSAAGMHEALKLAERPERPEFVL

[5] = target: T1, 5-HT1AR (Homo sapiens, UniProt P08908); assay: Radioligand binding assay, [3H]-8-OH-DPAT displacement
T1 sequence (P08908 1-422): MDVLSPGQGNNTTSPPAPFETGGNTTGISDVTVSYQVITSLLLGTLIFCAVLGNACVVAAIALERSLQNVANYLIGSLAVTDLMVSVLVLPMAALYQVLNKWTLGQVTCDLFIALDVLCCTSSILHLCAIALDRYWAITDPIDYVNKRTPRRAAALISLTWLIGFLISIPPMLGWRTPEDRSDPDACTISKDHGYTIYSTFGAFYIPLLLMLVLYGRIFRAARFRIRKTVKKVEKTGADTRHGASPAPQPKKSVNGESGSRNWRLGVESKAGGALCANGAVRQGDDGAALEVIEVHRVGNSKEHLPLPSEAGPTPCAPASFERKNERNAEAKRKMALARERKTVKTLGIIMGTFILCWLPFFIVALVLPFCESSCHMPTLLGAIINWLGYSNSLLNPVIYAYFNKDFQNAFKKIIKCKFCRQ

[6] = target: T2, D2R (Homo sapiens, UniProt P14416); assay: Radioligand binding assay, [3H]-raclopride displacement
T2 sequence (P14416 whole entry): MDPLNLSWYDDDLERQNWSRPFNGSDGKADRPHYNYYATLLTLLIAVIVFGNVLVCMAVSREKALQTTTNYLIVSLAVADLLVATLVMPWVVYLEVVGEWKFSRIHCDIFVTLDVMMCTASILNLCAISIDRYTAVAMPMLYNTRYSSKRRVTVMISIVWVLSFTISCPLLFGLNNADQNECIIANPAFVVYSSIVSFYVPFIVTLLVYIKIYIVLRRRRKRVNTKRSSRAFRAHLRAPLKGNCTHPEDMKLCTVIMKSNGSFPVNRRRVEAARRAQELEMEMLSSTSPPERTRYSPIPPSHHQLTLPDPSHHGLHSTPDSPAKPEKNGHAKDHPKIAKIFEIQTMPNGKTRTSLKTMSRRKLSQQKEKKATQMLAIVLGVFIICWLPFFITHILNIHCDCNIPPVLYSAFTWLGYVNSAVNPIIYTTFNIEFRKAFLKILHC

[7] = target: T3, Human Serotonin 5-HT6R (Homo sapiens, UniProt P50406); assay: 5-HT6R functional assay, antagonistic mode (cAMP induced by 5-CT, 1321N1 cells); format: cell-based
T3 construct: host or cells: 1321N1 (frozen recombinant cells)
T3 sequence (P50406 whole entry): as the sequence (P50406 whole entry) above
Procedure: The properties of compounds to inhibit cAMP production induced by a 5-HT6R agonist 5-CT (1000 nM) was evaluated. Compounds were tested in triplicate at eight concentrations (10^−11–10^−4 M). The level of cAMP was measured using frozen recombinant 1321N1 cells expressing the Human Serotonin 5-HT6R (PerkinElmer). Total cAMP was measured using the LANCE cAMP Detection Kit (PerkinElmer), according to the manufacturer’s instructions. For quantification of cAMP levels, 2000 cells/well ([…]) were incubated with a mixture of compounds ([…]) for 30 min at room temperature in a 384-well white opaque microtiter plate. After incubation, the reaction was stopped and cells were lysed by the addition of […] of working solution ([…] ULight-anti-cAMP) for 1 h at room temperature. Time-resolved fluorescence resonance energy transfer (TR-FRET) was detected by an Infinite M1000 Pro (Tecan) using instrument settings from the LANCE cAMP Detection Kit manual. […] The agonistic properties of compounds were determined with an analogous procedure, but without stimulation with 5-CT [10, 36].

[8] = target: T2, D2R; assay: D2R functional assay, antagonist mode (cAMP, HEK293 cells); format: cell-based; design: expressed in transfected cells
Procedure: The supernatant was aspirated, and the cell pellet was resuspended in stimulation buffer (1 × HBSS, 5 mM HEPES, 0.5 mM IBMX, 0.1% BSA).
The functional properties of compounds were evaluated using the LANCE Ultra cAMP Detection Kit (PerkinElmer). D2 receptors in HEK293 cells are coupled to Gi subtype and decreased cAMP production. […] Each compound was tested in triplicate at eight concentrations (10^−11–10^−4 M).
For quantification of cAMP levels, cells (5 µL) were incubated with 5 µL mixture of compounds (tested ligand and forskolin with 100 nM quinpirole for antagonist binding mode) for 30 min at room temperature in 384-well white opaque microtiter plate (PerkinElmer). After incubation, the reaction was stopped and cells were lysed by the addition of 10 µL working solution (5 µL Eu-cAMP and 5 µL ULight-anti-cAMP). The assay plate was incubated for 1 h at room temperature. Time-resolved fluorescence resonance energy transfer (TR-FRET) signal was detected by an Infinite M1000 Pro (Tecan) using instrument settings from the LANCE Ultra cAMP Detection Kit manual.

[9] = Metabolic stability, incubation with mouse liver microsomes; format: in vitro ADME; settings: MLMs, 50 µM, 2 h
Procedure: The murine liver microsomes (MLMs) were purchased from Sigma-Aldrich (St. Louis, MO, USA). To determine metabolic pathways, the tested compounds (50 µM) were incubated with 100 mM Tris-HCl buffer at 37 °C with MLMs (1 mg/mL) and NADPH Regeneration System for 2 h. Reactions were quenched with cold, pure methanol and mixtures were centrifuged 14,000 g for 15 min. The supernatants were analyzed using LCMS. The additional MS ion fragmentation of the product and the substrate were performed to determine the most probable structure of the metabolite.

[10] = target: T4, CYP3A4 (Homo sapiens, UniProt P08684); assay: CYP3A4 P450-Glo luminescent assay; format: in vitro ADME; settings: compared to ketoconazole; 0.01 to 25 µM
T4 construct: purchased Promega (Madison, WI, USA)
T4 sequence (P08684 whole entry): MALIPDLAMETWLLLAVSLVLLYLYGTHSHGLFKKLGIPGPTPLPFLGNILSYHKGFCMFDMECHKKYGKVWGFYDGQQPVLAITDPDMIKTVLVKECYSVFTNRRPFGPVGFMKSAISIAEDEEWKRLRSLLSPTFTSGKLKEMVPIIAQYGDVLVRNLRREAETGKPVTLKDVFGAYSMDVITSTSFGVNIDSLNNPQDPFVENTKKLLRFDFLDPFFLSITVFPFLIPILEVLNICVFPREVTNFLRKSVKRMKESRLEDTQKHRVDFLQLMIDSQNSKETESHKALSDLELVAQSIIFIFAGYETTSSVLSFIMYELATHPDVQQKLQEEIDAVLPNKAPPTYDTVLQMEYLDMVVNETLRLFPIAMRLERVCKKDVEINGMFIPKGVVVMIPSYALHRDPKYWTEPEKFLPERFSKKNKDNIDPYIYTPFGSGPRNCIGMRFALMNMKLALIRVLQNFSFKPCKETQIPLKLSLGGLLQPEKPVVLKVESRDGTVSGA
Procedure: The experiments were provided using commercially available luminescent CYP3A4 P450-Glo™ and CYP2D6 P450-Glo™ tests purchased from Promega (Madison, WI, USA). The enzymatic reactions were conducted in polystyrene, flat-bottom Nunc™ MicroWell™ 96-well microplates (Thermo Scientific, Waltham, MA, USA). The assays were carried out according to the procedures provided by the manufacturer, as described previously. Compounds were tested in triplicate at the final concentrations in a range from 0.01 to 25 µM for both isoforms of CYP450. The references of CYP3A4 and CYP2D6 inhibitors (ketoconazole and quinidine, respectively) were tested in a range from 0.001 to 10 µM. Tested compounds were incubated in 100 mM Tris-HCl buffer separately with CYP3A4 and CYP2D6 membranes and the NADPH Regeneration System for 30 min at room temperature in triplicate. The bioluminescent signal was measured after the addition of the Luciferin Detection Reagent by using a microplate reader EnSpire PerkinElmer (Waltham, MA, USA). Both reagents (NADPH Regeneration System and Luciferin Detection Reagent) were purchased from Promega (Madison, WI, USA).

[11] = tested on: HepG2 cell line; assay: Hepatotoxicity assay, HepG2 viability; format: cell-based; settings: 1 μM, 72 h
Procedure: To estimate the hepatotoxicity of compounds, the hepatoma HepG2 (ATCC® HB-8065TM) cell line was used according to previously described protocols. The CellTiter 96® AQueous Non-Radioactive Cell Proliferation Assay was obtained from Promega (Madison, WI, USA). The compounds were tested in quadruplicate at four concentrations (1–100 µM) for 72 h.

[12] = for permeability in words: PAMPA
[13] = in vitro; settings: PAMPA, pH 7.4
[14] = read-out: pKi 5-HT2A (converted)
[15] = antagonistic mode, 5-CT 1000 nM, read-out: 5-HT6 Kb
[16] = antagonistic mode, 100 nM quinpirole, read-out: D2 Kb

| SMILES | Ki [2, 14] | Ki ([3]; pKi 5-HT6, Table 1) | Ki [4] | Ki ([5]; pKi 5-HT1A, Table 1) | Ki ([6]; pKi D2, Table 1) | other results |
| --- | --- | --- | --- | --- | --- | --- |
| Cc1ccc2[nH]cc(CCNCc3c[nH]c4ccccc34)c2c1 [Compound 2] | 562 nM | 129 nM | 2950 nM | 692 nM | > 10000 nM | – |
| COc1ccc2[nH]cc(CCNCc3c[nH]c4ccccc34)c2c1 [Compound 3] | – | 117 nM | 562 nM | 155 nM | – | Ki ([2]; pKi 5-HT2A): 83.2 nM; Ki ([5]; Ki 5-HT1AR): 156 nM; pKi D2 ([6]; Table 1): 6.49 |
| Clc1ccc2[nH]cc(CCNCc3c[nH]c4ccccc34)c2c1 [Compound 4] | – | 107 nM | – | – | 2450 nM | – |
| Fc1cccc2c(CCNCc3c[nH]c4ccccc34)c[nH]c12 [Compound 6] | 380 nM | 170 nM | 10200 nM | 2750 nM | 2950 nM | Ki ([3]; Ki 5-HT6, Figure 8): 168 nM |
| Clc1cccc2c(CCNCc3c[nH]c4ccccc34)c[nH]c12 [Compound 7] | 631 nM | 132 nM | 25100 nM | 5130 nM | 11700 nM | Ki ([3]; Ki 5-HT6, Figure 8): 133 nM |
| Brc1cccc2c(CCNCc3c[nH]c4ccccc34)c[nH]c12 [Compound 8] | 776 nM | 162 nM | 20400 nM | 6030 nM | 3020 nM | Ki ([3]; Ki 5-HT6, Figure 8): 161 nM |
| Oc1ccc2[nH]cc(CNCCc3c[nH]c4ccccc34)c2c1 [Compound 9] | 1950 nM | 2240 nM | 5130 nM | 2880 nM | 7590 nM | – |
| Fc1ccc2[nH]cc(CNCCc3c[nH]c4ccccc34)c2c1 [Compound 10] | 3470 nM | 407 nM | 4790 nM | 490 nM | 8510 nM | – |
| Clc1ccc2[nH]cc(CNCCc3c[nH]c4ccccc34)c2c1 [Compound 11] | 3240 nM | 513 nM | 3800 nM | 676 nM | 2090 nM | – |
| Ic1ccc2[nH]cc(CNCCc3c[nH]c4ccccc34)c2c1 [Compound 12] | 2340 nM | 457 nM | 5130 nM | 490 nM | 2090 nM | – |
| Fc1ccc2c(CNCCc3c[nH]c4ccccc34)c[nH]c2c1 [Compound 13] | – | 224 nM | 18200 nM | – | 302 nM | Kb [7]: 30 nM; EC50 [8]: 91 nM; Kb [8]: 91 nM; Ki ([2]; pKi 5-HT2A): 2570 nM; Ki ([3]; Ki 5-HT6, Figure 8): 225 nM; Ki [5]: 1350 nM; Ki ([6]; Ki D2, Figure 8): 299 nM |
| Clc1ccc2c(CNCCc3c[nH]c4ccccc34)c[nH]c2c1 [Compound 14] | 468 nM | 89.1 nM | 15800 nM | 1070 nM | 123 nM | Kb [7, 15]: 112 nM; Metabolic Pathway, metabolite M1 [9]: hydroxylation hydroxylation; Metabolic Pathway, metabolite M2 [9]: hydroxylation hydroxylation; effect on CYP3A4 activity [10]: only slightly inhibited; HepG2 cell viability [11]: ~ 80 % of the control; effect on HepG2 proliferation in words [11]: slight antiproliferative effect; permeability in words [12]: medium permeability coefficients; Papp at 5 h, 200 µM [13]: 8.34 ± 1.33 ×10⁻⁶ cm/s; Kb [8, 16]: 290 nM; Ki ([3]; Ki 5-HT6, Figure 8): 90 nM; Ki ([6]; Ki D2, Figure 8): 124 nM |
| Fc1cccc2c(CNCCc3c[nH]c4ccccc34)c[nH]c12 [Compound 16] | 1230 nM | 316 nM | 12900 nM | 5620 nM | – | – |
| Clc1cccc2c(CNCCc3c[nH]c4ccccc34)c[nH]c12 [Compound 17] | 3890 nM | 363 nM | 1070 nM | 282 nM | 51.3 nM | Kb [7, 15]: 234 nM; Metabolic Pathway, metabolite M1 [9]: hydroxylation hydroxylation; Metabolic Pathway, metabolite M2 [9]: hydroxylation hydroxylation; effect on CYP3A4 activity [10]: only slightly inhibited; HepG2 cell viability [11]: ~ 80 % of the control; effect on HepG2 proliferation in words [11]: slight antiproliferative effect; permeability in words [12]: medium permeability coefficients; Papp at 5 h, 200 µM [13]: 8.42 ± 0.27 ×10⁻⁶ cm/s; Kb [8, 16]: 215 nM; Ki ([6]; Ki D2, Figure 8): 51 nM |
| c1ccc(COc2cccc3c(CNCCc4c[nH]c5ccccc45)c[nH]c23)cc1 [Compound 19] | 2290 nM | 302 nM | 11200 nM | 741 nM | 4070 nM | Ki ([3]; Ki 5-HT6, Figure 8): 303 nM |
| COc1ccc2[nH]cc(CCNCc3c[nH]c4c(Cl)cccc34)c2c1 [Compound 20] | 309 nM | 97.7 nM | 295 nM | – | 2340 nM | Ki [5]: 79.4 nM |
| COc1ccc2[nH]cc(CCNCc3c[nH]c4cc(Cl)ccc34)c2c1 [Compound 21] | 174 nM | 52.5 nM | 813 nM | 186 nM | 1550 nM | – |
| Clc1ccc2c(CCNCc3c[nH]c4c(Cl)cccc34)c[nH]c2c1 [Compound 22] | 4070 nM | 363 nM | 13200 nM | 5620 nM | 5010 nM | – |
| CCn1cc(C(=O)O)c(=O)c2cc(F)c(N3CCNCC3)cc21 [Norfloxacin, norfloxacin, reference compound] | – | – | – | – | – | PAMPA Pe ± SD ([12]; 5 h, 200 µM, pH 7.4): 0.56 10^−6 cm/s |
